Experimental data taken from patent US10208034B2, “Quinoline derivative” (ONO PHARMACEUTICAL CO., LTD., priority 2014, dated 2019).

Target: T1, Human CYP2C8 (Homo sapiens, UniProt P10632)
T1 construct: purchased Cypex; host or cells: E. coli
T1 sequence (P10632 1-490): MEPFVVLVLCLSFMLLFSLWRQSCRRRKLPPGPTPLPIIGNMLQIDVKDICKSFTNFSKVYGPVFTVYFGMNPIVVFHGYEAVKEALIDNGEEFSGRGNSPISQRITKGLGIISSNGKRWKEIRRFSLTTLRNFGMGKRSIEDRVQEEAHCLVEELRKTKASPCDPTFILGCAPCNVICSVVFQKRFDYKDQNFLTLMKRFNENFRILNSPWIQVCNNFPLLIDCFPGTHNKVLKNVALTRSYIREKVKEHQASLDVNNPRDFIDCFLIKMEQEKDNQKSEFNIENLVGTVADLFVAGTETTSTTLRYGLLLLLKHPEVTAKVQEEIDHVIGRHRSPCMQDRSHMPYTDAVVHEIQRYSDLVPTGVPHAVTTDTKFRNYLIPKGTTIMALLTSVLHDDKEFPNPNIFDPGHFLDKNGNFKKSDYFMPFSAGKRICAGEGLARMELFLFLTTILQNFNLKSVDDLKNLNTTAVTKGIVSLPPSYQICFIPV
Test: Inhibitory activity of drug-metabolizing enzyme (human CYP2C8 inhibition effect)
Type: in vitro ADME
Conditions: E. coli-expressed CYP2C8, Luciferin-ME substrate, 37° C. 30 min, from inhibition at 1 and 10 μmol/L
Description: The reaction was carried out in a 384-well plate. As the positive control substance (CYP2C8: quercetin), a solution, which had been adjusted with DMSO to have 300 times higher concentration than the final concentration (CYP2C8: 22.5 and 225 μmol/L) and been 75-fold diluted with purified water containing 2.7% acetonitrile, was prepared (CYP2C8: 0.3 and 3 μmol/L). […] Thereafter, 16 μL of luciferase solution was added to stop the reaction and to allow luciferin to emit light, and the luminescence intensity of the reaction solution was measured. The inhibition rate is a reduction rate (inhibition rate) of the luminescence intensity when compared with the control in which the reaction was carried out by the addition of DMSO in place of the test compound solution. The inhibition rate was calculated from the following mathematical formula. Inhibition rate (%)=100−{(luminescence intensity of test compound−background luminescence intensity)/(luminescence intensity of control−background luminescence intensity)×100} [Math. […]
The IC50 value of the compound of the present invention was measured using the measurement method described above.

| IC50 | Structure (SMILES) |
| --- | --- |
| > 10 µM | COc1cc2nccc(Oc3ccc(NC(=O)c4cc(C(C)=O)cn(-c5ccccc5)c4=O)nc3)c2cc1OC [Example 21, 5-acetyl-N-{5-[(6,7-dimethoxy-4-quinolinyl)oxy]-2-pyridinyl}-2-oxo-1-phenyl-1,2-dihydro-3-pyridinecarboxamide] |
| > 10 µM | COc1cc2nccc(Oc3ccc(NC(=O)c4c5c(cn(-c6ccccc6)c4=O)C(=O)CCC5)nc3)c2cc1OC [Example 42, N-{5-[(6,7-dimethoxy-4-quinolinyl)oxy]-2-pyridinyl}-3,8-dioxo-2-phenyl-2,3,5,6,7,8-hexahydro-4-isoquinolinecarboxamide] |
